Test results taken from ChEMBL document CHEMBL4477252, “Optimization of microtubule affinity regulating kinase (MARK) inhibitors with improved physical properties” (Bioorg Med Chem Lett, 2016).
Converted amounts (≈) assume the structure as drawn.

Tests used:
[1] = target: MAP/microtubule affinity-regulating kinase 3 (Homo sapiens, UniProt P27448); experiment: Inhibition of full-length recombinant human GST-tagged MARK3 expressed in baculovirus expression system using biotinylated-Cdc25C peptide substrate measured after 2 hrs by HTRF assay
Chain of MAP/microtubule affinity-regulating kinase 3 (P27448 whole entry): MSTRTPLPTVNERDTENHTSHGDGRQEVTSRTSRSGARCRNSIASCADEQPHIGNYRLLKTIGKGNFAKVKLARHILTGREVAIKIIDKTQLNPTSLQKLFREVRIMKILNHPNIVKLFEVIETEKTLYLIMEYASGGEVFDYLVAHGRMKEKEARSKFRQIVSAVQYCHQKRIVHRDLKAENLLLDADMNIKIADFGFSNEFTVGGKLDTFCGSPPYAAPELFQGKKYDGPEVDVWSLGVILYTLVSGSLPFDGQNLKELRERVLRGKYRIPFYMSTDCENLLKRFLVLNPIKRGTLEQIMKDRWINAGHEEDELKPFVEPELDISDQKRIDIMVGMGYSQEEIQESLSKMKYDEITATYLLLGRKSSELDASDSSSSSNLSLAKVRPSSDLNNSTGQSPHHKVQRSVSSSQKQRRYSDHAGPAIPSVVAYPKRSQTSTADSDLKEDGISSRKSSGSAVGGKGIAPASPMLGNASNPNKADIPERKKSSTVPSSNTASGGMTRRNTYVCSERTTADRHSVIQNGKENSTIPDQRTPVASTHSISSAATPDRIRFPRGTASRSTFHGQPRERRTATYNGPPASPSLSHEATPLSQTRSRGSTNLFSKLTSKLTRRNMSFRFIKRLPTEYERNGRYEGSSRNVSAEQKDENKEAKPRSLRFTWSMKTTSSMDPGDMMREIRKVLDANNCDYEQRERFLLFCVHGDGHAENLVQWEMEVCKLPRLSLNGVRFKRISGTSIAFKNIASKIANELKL

[2] = target: MDR1 (ABCB1, P-glycoprotein) (Homo sapiens, UniProt P08183); experiment: Substrate activity at human MDR1 expressed in LLC-PK1 cells assessed as efflux ratio of permeability across basolateral to apical over apical to basolateral side at 5 uM; format: ADME, cell-based
Chain of MDR1 (ABCB1, P-glycoprotein) (P08183 whole entry): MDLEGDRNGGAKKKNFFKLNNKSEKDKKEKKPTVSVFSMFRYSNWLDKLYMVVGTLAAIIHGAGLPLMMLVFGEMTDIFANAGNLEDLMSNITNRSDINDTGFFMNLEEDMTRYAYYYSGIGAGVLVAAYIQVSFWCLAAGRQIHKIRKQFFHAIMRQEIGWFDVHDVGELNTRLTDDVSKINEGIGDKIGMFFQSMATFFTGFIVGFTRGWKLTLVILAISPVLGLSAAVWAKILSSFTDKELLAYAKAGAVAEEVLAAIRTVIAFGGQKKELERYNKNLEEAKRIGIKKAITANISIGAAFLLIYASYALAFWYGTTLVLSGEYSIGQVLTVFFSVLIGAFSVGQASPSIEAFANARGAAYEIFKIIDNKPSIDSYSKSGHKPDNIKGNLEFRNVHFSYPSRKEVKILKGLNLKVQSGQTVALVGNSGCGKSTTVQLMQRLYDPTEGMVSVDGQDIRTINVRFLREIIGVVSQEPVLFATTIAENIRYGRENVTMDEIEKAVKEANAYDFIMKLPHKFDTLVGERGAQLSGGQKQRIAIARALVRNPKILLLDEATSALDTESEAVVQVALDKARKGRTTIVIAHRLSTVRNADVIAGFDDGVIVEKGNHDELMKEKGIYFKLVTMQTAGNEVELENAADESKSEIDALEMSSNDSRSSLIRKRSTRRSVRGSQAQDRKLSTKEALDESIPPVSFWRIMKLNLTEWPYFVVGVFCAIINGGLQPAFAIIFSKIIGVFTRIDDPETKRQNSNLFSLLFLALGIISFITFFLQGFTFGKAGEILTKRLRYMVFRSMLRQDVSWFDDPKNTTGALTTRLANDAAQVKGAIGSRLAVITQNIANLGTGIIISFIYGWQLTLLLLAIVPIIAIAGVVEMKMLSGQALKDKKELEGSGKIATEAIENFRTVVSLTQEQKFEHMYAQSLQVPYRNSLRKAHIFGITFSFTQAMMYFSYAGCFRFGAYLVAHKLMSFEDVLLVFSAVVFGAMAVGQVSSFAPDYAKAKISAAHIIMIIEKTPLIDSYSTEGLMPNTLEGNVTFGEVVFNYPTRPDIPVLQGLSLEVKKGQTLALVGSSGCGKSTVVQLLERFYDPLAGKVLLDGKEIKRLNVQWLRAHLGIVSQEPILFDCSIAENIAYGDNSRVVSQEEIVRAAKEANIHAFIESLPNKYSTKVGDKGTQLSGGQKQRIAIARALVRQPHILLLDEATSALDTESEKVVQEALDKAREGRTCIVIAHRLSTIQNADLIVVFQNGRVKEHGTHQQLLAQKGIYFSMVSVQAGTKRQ

[3] = Solubility of the compound at pH 7; format: physicochemical; details: buffer
[4] = Clearance in Sprague-Dawley rat at 1 mL/kg, iv administered through catheter measured after 24 hrs by LC-MS/MS analysis; format: ADME, organism-based; details: in vivo

SMILES	IC50 [1] [nM]	efflux ratio at 5 µM [2]	solubility [3] [µM]	clearance [4] [mL/min/kg]
O=C(NCC(F)(F)F)c1cc(-c2cnn3cc(-c4cn[nH]c4)cnc23)cs1	99			
Cn1cnc(-c2cnc3c(-c4csc(C(=O)NCC(F)(F)F)c4)cnn3c2)c1	13			
O=C(NCC(F)(F)F)c1cc(-c2cnn3cc(-c4cccnc4)cnc23)cs1	70			
CCNC(=O)c1cc(-c2cnn3cc(-c4cnn(C)c4)cnc23)cs1	129			
Cc1sc(C(=O)N[C@H]2CCCC(F)(F)[C@H]2N)cc1-c1cnn2cc(-c3cnn(C)c3)cnc12	130			
Cn1cc(-c2cnc3c(-c4csc(C(=O)NCCC(N)C(F)(F)F)c4)cnn3c2)cn1 (stereo not drawn)	10	4.8		14
Cn1cc(-c2cnc3c(-c4csc(C(=O)NC(CO)C5CC5)c4)cnn3c2)cn1 (stereo not drawn)	9			
Cn1cc(-c2cnc3c(-c4csc(C(=O)NCCC(N)C(F)F)c4)cnn3c2)cn1 (stereo not drawn)	15	11.5		16.7
Cn1cc(-c2cnc3c(-c4csc(C(=O)NCCC(N)CF)c4)cnn3c2)cn1 (stereo not drawn)	22	16.7		
COCCOc1ccc(-c2cnc3c(-c4csc(C(=O)NCC(F)(F)F)c4)cnn3c2)cc1	5			
Cn1cc(-c2cnc3c(-c4csc(C(=O)N[C@@H]5CCCC[C@H]5O)c4)cnn3c2)cn1 (mixture of isomers)	24		6	
Cn1cc(-c2cnc3c(-c4csc(C(=O)N[C@@H]5CCC[C@H]5O)c4)cnn3c2)cn1 (racemic)	10			
Cn1cc(-c2cnc3c(-c4csc(C(=O)N[C@@H]5CCCC[C@@H]5O)c4)cnn3c2)cn1 (racemic)	9			
Cn1cc(-c2cnc3c(-c4csc(C(=O)N[C@@H]5CCC[C@@H]5O)c4)cnn3c2)cn1 (racemic)	43			

Now those with a lower IC50 [1], led by results:

IC50 [1] [nM]	efflux ratio at 5 µM [2]	solubility [3] [µM]	clearance [4] [mL/min/kg]	SMILES
2.4	10	200 (≈ 78.3 µg/mL)		Cc1sc(C(=O)N[C@@H]2[C@H](N)CCCC2(F)F)cc1-c1cnn2cccnc12
< 0.25		31 (≈ 14.6 µg/mL)		Cc1sc(C(=O)N[C@@H]2[C@H](N)CCCC2(F)F)cc1-c1cnn2cc(-c3cnn(C)c3)cnc12
2		69 (≈ 28.1 µg/mL)		Cn1cc(-c2cnc3c(-c4csc(C(=O)N[C@@H]5CCC[C@@H]5N)c4)cnn3c2)cn1 (racemic)
1		193 (≈ 81.4 µg/mL)		Cn1cc(-c2cnc3c(-c4csc(C(=O)N[C@@H]5CCCC[C@H]5N)c4)cnn3c2)cn1 (racemic)
1.3		192 (≈ 83.6 µg/mL)		Cc1sc(C(=O)N[C@@H]2CCCC[C@@H]2N)cc1-c1cnn2cc(-c3cnn(C)c3)cnc12 (racemic)
3		203 (≈ 82.7 µg/mL)		Cn1cc(-c2cnc3c(-c4csc(C(=O)N[C@@H]5CCC[C@H]5N)c4)cnn3c2)cn1 (racemic)
